# Results as given in patent publication US20100120690A1, “Polypeptides Having Antimicrobial Activity and Polynucleotides Encoding Same” (Novozymes Adenium Biotech A/S, priority 2005, published 2010).
# System: Staphylococcus carnosus ATCC51365
# Experiment: Yeast screening assay: radial diffusion assay of yeast supernatants
# Type: cell-based
# Design: key: An activity of 3 is better than Plectasin; An activity of 2 corresponds to the activity of Plectasin; 1 is worse than Plectasin
# Conditions: yeast supernatant, clearing zone in radial diffusion assay
# Description: A range of antimicrobial polypeptides, which are variants of SEQ ID NO: 1 (Plectasin), were tested for antimicrobial activity by expressing them in S. cerevisae and screening the supernatant of the yeast transformants for antimicrobial activity against Staphylococcus carnosus ATCC51365.
# Radial Diffusion Assay was carried out as described in Methods in Molecular Biology, Vol. 78, Antibacterial peptide protocol, William M. Shafer, Human Press.
# 200-300 yeast transformant colonies were plated on 14 cm round plates containing 25 mL SC growth medium supplemented with 1.5% galactose, 0.5% glucose and 1.5% agarose. Plates were incubated for three hours at room temperature, overlaid with 25 mL of the same growth medium and allowed to grow for three days at 30° C. Then the plates were overlaid with 25 mL of LB growth medium containing 1.5% agarose and 10^5 cells of the indicator strain Staphylococcus carnosus and incubated at 30° C. overnight to allow growth of the bacterial cells. Next day, the plates were stained with 1.5 mM MTT to facilitate visualization of the clearing zones.
# Yeast colonies creating clearing zones were transferred to microtiter plates containing 200 micro-L of SC growth medium supplemented with 2% glucose and ampicillin (100 mg/L). Such plates designated “master plates” were incubated for 2 days at 30° C. with shaking at 450 rpm to allow yeast growth.
# 10 micro-L SC growth medium from each well of the master plates were transferred to new microtiter plates containing 200 micro-L SC growth medium with 1.5% galactose and 0.5% glucose. These plates were called daughter plates and were incubated for 3 days at 30° C. under 450 rpm shaking to allow yeast growth and peptide synthesis.
# Finally a Radial Diffusion Assay (RDA) was performed following the protocol described in Methods in Molecular Biology to analyse and quantify the antimicrobial activity of the yeast supernatants against S. carnosus.
# Briefly, 30 mL of minimal underlay medium containing 1% agarose and 5×10^5 cfu/mL of S. carnosus was poured in an omnitray plate (Nunc, 242811). A Nunc TSP plate (#445497) was inserted immediately on the plate to allow a 96 well pattern formation. Once the media had solidified, the TSP plate was removed and 10 micro-L of yeast supernatant samples were applied on the holes. Plates were incubated 3 hours at 37° C. and overlaid with 15 mL of LB agar growth medium. Finally, plates were incubated overnight at 37° C. and coloured with 1.5 mM MTT to visualize the clearing zones.
# Inspection and measurements of the clearing zones was performed on the plates. The corresponding yeast clones resulting in clearing zones of similar or increased size than the clones encoding for wild type plectasin were picked from the master plates and transferred to agar plates containing SC growth medium with 2% glucose and ampicillin (100 mg/L). Such plates were incubated for further 2 days at 30° C. to allow yeast growth. Subsequently, colony PCR was performed followed by sequence analysis to identify amino acid changes in the plectasin sequence.
# An activity of 2 corresponds to the activity of Plectasin. An activity of 3 is better than Plectasin, and 1 is worse than Plectasin.
row,Sequence,Activity (antimicrobial activity relative to the activity of plectasin)
1,GFGCNGPWDEDDMQCHNHCKSIKGYKGGYCHKGGFVCKCY [Mutation A31H],2
2,GFGCNGPWDEDDMQCHNHCKSIKHYKGGYCAKGGFVCKCY [Mutation G24H],3
3,GFGCNGPWDEDDMQCHNHCKSIKGYKGGYCAKGGHVCKCY [Mutation F35H],2
4,GFGCNGPWDEDDMQCHNHCKSIKGYKGGFCAKGGFVCKCY [Mutation Y29F],3
5,GFGCNGPWWEDDMQCHNHCKSIKGYKGGYCAKGGFVCKCY [Mutation D9W],2
6,GFGCNGPWDEDDMQCHNHCKSIKGYKGGLCAKGGFVCKCY [Mutation Y29L],2
7,GFGCNGPWDEDDMQCHNHCKSIKGLKGGYCAKGGFVCKCY [Mutation Y25L],2
8,GFGCNGPWDEGDMQCHSHCKSIKGYKGGYCAKGGFVCKCY [D11G + N17S],3
9,GFGCNGPWDEDDMQCHNHCKSIKGYKGGYCAKGGFICKCY [Mutation V36I],2
10,GFGCNGPWDEDDMQCHNHCKSIKGYKGGRCAKGGFVCKCY [Mutation Y29R],3
11,GFGCNGPWDEDDMQCHNHCKSIKNYKGGYCAKGGFVCKCY [Mutation G24N],3
12,GFGCNGPWHEDDMQCHNHCKSIKGYKGGYCAKGGFVCKCY [Mutation D9H],3
13,GFGCNGPRDEDDMQCHNHCKSIKGYKGGYCAKGGFVCKCY [Mutation W8R],3
14,GFGCNGPWDEDDMQCHNHCKSIKGYKGGYCARGKFVCKCY [K32R + G34K],2
15,GFGCNGPWDEDDMICHNHCKSIKGYKGGYCAKGGFVCKCY [Mutation Q14I],2
16,GFGCNGPWDEDDMQCHNHCKSIKGYKGGYCAKGGIVCKCY [Mutation F35I],2
17,GFGCNGPWDEDDMQCHNHCKSIKYYKGGYCAKGGFVCKCY [Mutation G24Y],2
18,GFGCNGPWDEDDMQCHNHCKSIKGQKGGYCAKGGFVCKCY [Mutation Y25Q],2
19,GFGCNGPWDEHDMQCHNHCKSIKGYKGGYCAKGGFVCKCY [Mutation D11H],3
20,GFGCNGPWDEDDMQCHNHCKSVKGYKGGYCAKGGFVCKCY [Mutation I22V],3

row,Sequence,Activity (antimicrobial activity relative to the activity of plectasin)
1,GFGCNGPWDEDDMQCHNHCKSIKGYKGGWCAKGGFVCKCY [Mutation Y29W],3
2,GFGCNGPWDEDDMQCHNTCKSIKGYKGGYCAKGGFVCKCY [Mutation H18T],2
3,GFGCNGPWLEDDMQCHNHCKSIKGYNGGYCAKGGFVCKCY [D9L + K26N],2
4,GFGCNGPWDEDDMQCHNHCKSIKKYKGGYCAKGGFVCKCY [Mutation G24K],3
5,GFGCNGPWCEDDMQCHNHCKSIKGYKGGYCAKGGFVCKCY [Mutation D9C],2
6,GFGCNGPWDEDDMQCHNHCKSIKGYHGGYCAKGGFVCKCY [Mutation K26H],2
7,GFGCNGPWDEDDMQCHNHCKSIKGYKGGYCAKGGLVCKCY [Mutation F35L],3
8,GFGCNGPWDEDDYQCHNHCKSIKGYKGGYCAKGGFVCKCY [Mutation M13Y],2
9,GFGCNGPWDSDDMQCHNHCKSIKGYKGGYCAKGGFVCKCY [Mutation E10S],3
10,GFGCNGPWDEDDMQCHNHCKSIKGYKGGYCYKGGFVCKCY [Mutation A31Y],3
11,GFGCNGPWDEFDMQCHNHCKSIKGYKGGYCAKGGFVCKCY [Mutation D11F],3
12,GFGCNGPWDEDDMQCHNHCKSIKGYKGGYCIKGGFVCKCY [Mutation A31I],2
13,GFGCNGPWDEDDRQCHNHCKSIKGYKGGFCAKGGFVCKCY [M13R + Y29F],2
14,GFGCNGPWDEDDMQCHNHCKSIKGYKGGYCAKGRFVCKCY [Mutation G34R],3
15,GFGCKGPWDEGDMQCHNHCKSIKGYKGGYCAKGGFVCKCY [N5K + D11G],3
16,GFGCNGPWMEDDMQCHNHCKSIKGYKGGYCAKGGFVCKCY [Mutation D9M],3
17,GFGCNGPWDEDDMQCHNHCKSIKGKKGGYCAKGGFVCKCY [Mutation Y25K],2
18,GFGCNGPWYEDDMQCHNHCKSIKGYKGGYCAKGGFVCKCY [Mutation D9Y],3
19,GFGCNAPWDEDDMQCHNHCKSIKGYKGGYCAKGGFVCKCY [Mutation G6A],2
20,GFGCNGPWDEDDMQCHNHCKSIKGYKGGYCRKGGFVCKCY [Mutation A31R],2

row,Sequence,Activity (antimicrobial activity relative to the activity of plectasin)
1,GFGCNGPWDELDIQCHNHCKSIKGYKGGYCAKGGFVCKCY [D11L + M13I],2
2,GFGCNGPWDEDDGQCHNHCKSIKGYKGGYCAKGGFVCKCY [Mutation M13G],2
3,GFGCNGPWDEDDMQCHNHCKSIKGYKGGYCAKGGFMCKCY [Mutation V36M],3
4,GFGCNGPWLEDDMQCHNHCKSIKGYKGGYCAKGGFVCKCY [Mutation D9L],3
5,GFGCNGPWDEDDMQCHNHCKSIKGYKGGFCARGGFVCKCY [Y29F + K32R],2
6,GFGCNGPWDEDDMCCHNHCKSIKGYKGGYCAKGGFVCKCY [Mutation Q14C],2
7,GFGCNGPWDEDDAQCHNHCKSIKGYKGGYCAKGGFVCKCY [Mutation M13A],2
8,GFGCNGPWDEDDMQCHNVCKSIKGYKGGYCAKGGFVCKCY [Mutation H18V],2
9,GFGCNGAWDEDDMQCHNHCKSIKGYKGGYCAKGGFVCKCY [Mutation P7A],2
10,GFGCNGPWDEDDMMCHNHCKSIKGYKGGYCAKGGFVCKCY [Mutation Q14M],2
11,GFGCNGPWDEVDMQCHNHCKSIKGYKGGYCAKGGFVCKCY [Mutation D11V],3
12,GFGCNGPWDEDDMQCHNHCKSIKGYKGGYCKKGGFVCKCY [Mutation A31K],3
13,GFGCMGPWDEDDMQCHNHCKSIKGYKGGYCAKGGFVCKCY [Mutation N5M],2
14,GFGCNGPWAEDDMQCHNHCKSIKGYKGGYCAKGGFVCKCY [Mutation D9A],3
15,GFGCNGRWDEDDMQCHNHCKSIKGYKGGYCAKGGFVCKCY [Mutation P7R],3
16,GFGCNGPWDEDDMQCHNHCKSIKGYKGGYCAKGHFVCKCY [Mutation G34H],2
17,GFGCNGPWDEDDMPCHNHCKSIKGYKGGYCAKGGFVCKCY [Mutation Q14P],2
18,GFGCNGPWDERDMQCHNHCKSIKGYKGGYCAKGGFVCKCY [Mutation D11R],3
19,GWGCNGPWDEDDMQCHNHCKSIKGYKGGYCAKGGFVCKCY [Mutation F2W],2
20,GFGCNGPWDEDDMQCHNHCKSIKGYKGGYCAKGGFKCKCY [Mutation V36K],2
